From US20110046378A1, “Novel Imaging Agents for Detecting Neurological Dysfunction” (SIEMENS MEDICAL SOLUTIONS USA, INC., priority 2008, published 2011)
Read-outs that look alike come from different tables or passages of the source.

Experiments:
Aβ(1-42) Fibrils = Aβ(1-42) Fibrils (Homo sapiens, UniProt P05067); assay: Biacore (SPR) screening on immobilized Aβ42 fibrils; type: binding; conditions: for BINDING LEVELS TO Aβ(1-42) Fibrils: screening compounds at 10 uM; for Binding to fibrils (Aβ1-42): carbazole-based hits;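 on BINDING LEVELS TO Aβ(1-42) Fibrils: minus means no binding and more plus signs mean higher affinity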
Sequence of Aβ(1-42) Fibrils (P05067 672-713 limits assumed): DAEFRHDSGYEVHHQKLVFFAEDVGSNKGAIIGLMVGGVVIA

[1] = biological target: Aβ(1-42) Oligomers/Polymers (Homo sapiens, UniProt P05067); assay: Biacore (SPR) screening on immobilized Aβ42 oligomers/soluble polymers; type: binding; parameters: Binding to oligomers/polymers (Aβ1-42): key to the marks not given beside the values; conditions: for BINDING LEVELS TO Aβ(1-42) Oligomers/Polymers: screening compounds at 10 uM; for Binding to oligomers/polymers (Aβ1-42): carbazole-based hits
Sequence of Aβ(1-42) Oligomers/Polymers (P05067 672-713 limits assumed): as above

[2] = biological target: T1, Amyloid (AD patient's brain slice) (Homo sapiens, UniProt P05067); assay: IC50 determination with [18F]-PiB by ex vivo competition assay using autoradiography staining; type: binding
T1 construct: The brain slices were 20 um thick
T1 sequence (P05067 672-711 limits assumed): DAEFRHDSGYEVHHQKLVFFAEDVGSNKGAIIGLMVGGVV
From the text: (§1) Ex Vivo Competition Assay Using Amyloid (AD patient's brain slice) Autoradiography Staining

Aβ monomer = conditions: read-out: Binding Affinity IC50; cited from earlier work
[3] = test system: Amyloid (AD brain slices); assay: [18F]-CB001 competition studies on AD brain slices; type: binding, human; conditions: cold competitor, increasing concentrations
[4] = test system: Amyloid (AD patient's brain slice); assay: Amyloid autoradiography staining of AD patient's brain slices, grey/white matter binding with wash protocols; parameters: species or system human
Description: as §1
A study was conducted to examine the grey to white matter binding ratios for 4 different tracers: CB-001, CB-003, FDDNP and F-PiB (FIG. 7 and FIG. 8). […] After the human brain slices from AD patients were incubated with a given tracer for 30 min, the slices were washed with various EtOH:water solutions in an attempt to optimize the grey-to white matter ratios (FIG. 9). The results were surprising and unexpected in view of previous work performed by other researchers. CB-001 has a slightly higher c Log P than FDDNP (3.8 vs 3.4) and would be expected to have poorer washout than FDDNP based on these values. […] More specifically, the white matter binding of FDDNP is several shades darker than CB-001's white matter binding, indicating low non-specific binding of CB-001.

[5] = determination 1, vs [18F]-PiB, read-out: IC50 1
[6] = determination 3, vs [18F]-PiB, read-out: IC50 3
[7] = determination 5, vs [18F]-PiB, read-out: IC50 5
[8] = determination 6, vs [18F]-PiB, read-out: IC50 6
[9] = determination 13, vs [18F]-PiB, read-out: IC50 13
[10] = mean of determinations, vs [18F]-PiB, read-out: Average IC50
[11] = determination 4, vs [18F]-PiB, read-out: IC50 4
[12] = determination 7, vs [18F]-PiB, read-out: IC50 7

Row | BINDING LEVELS TO Aβ(1-42) Fibrils (Aβ(1-42) Fibrils) | BINDING LEVELS TO Aβ(1-42) Oligomers/Polymers [1] | SMILES | also measured
1 | ++ | +++ | O=c1c(O)c(-c2ccccc2)oc2ccc(O)cc12 | 
2 | + | + | CCOc1ccc2c(=O)c(Oc3ccccc3)c(C)oc2c1 | 
3 | + | ++ | Cc1oc2cc(O)ccc2c(=O)c1-c1nncn1-c1ccccc1 | 
4 | − | + | COc1ccc2c(=O)c(-c3ccccc3)c(C)oc2c1OC | 
5 | +++ | +++++ | O=c1cc(-c2ccccc2)c2ccc(O)c(O)c2o1 | 
6 | ++ | ++++ | O=c1c(O)c(-c2ccccc2)[nH]c2ccccc12 | 
7 | + | ++ | O=c1cc(-c2ccccc2)oc2ccc(O)cc12 | 
8 | − | + | Cc1c(-c2ccccc2)c(=O)oc2cc(O)ccc12 | 
9 | − | + | COc1cccc2oc(-c3ccccc3)cc(=O)c12 | 
10 | − | ++ | Cc1oc2c(C)c(O)ccc2c(=O)c1-c1nncn1-c1ccccc1 | 
11 | − | + | COc1cccc(-c2oc3cc(OC)ccc3c(=O)c2OC)c1 | 
12 | + | +++ | Oc1ccc2c(c1)[nH]c1ccccc12 [drawing 33] | 
13 | + | + | Cc1oc2cc(O)ccc2c(=O)c1-c1ccc(F)cc1 | 
14 | − | + | CCOc1ccc(Oc2c(C)oc3cc(O)ccc3c2=O)cc1 | 
15 | + | + | Cc1c(-c2ccccc2)oc2cc(O)ccc2c1=O | 
16 | +++++ | ++++++ | O=c1c(O)c(-c2ccc(O)c(O)c2)oc2cc(O)ccc12 | 
17 | ++ | ++ | Oc1ccc(-c2nc(-c3ccncc3)c(-c3ccc(F)cc3)[nH]2)cc1 | 
18 | − | + | CCc1cc2c(=O)c(-c3ccc(F)cc3)c(C)oc2cc1O | 

The remaining lines, values behind:

Row | SMILES | BINDING LEVELS TO Aβ(1-42) Fibrils (Aβ(1-42) Fibrils) | BINDING LEVELS TO Aβ(1-42) Oligomers/Polymers [1] | also measured
19 | O=c1cc(-c2ccccc2)oc2cc(O)ccc12 | + | + | 
20 | CNc1ccc2c(c1)[nH]c1cc(OCCOCCOCCF)ccc12 [CB-004, 7-(2-(2-(2-fluoroethoxy)ethoxy)ethoxy)-N-methyl-9H-carbazol-2-amine] |  |  | IC50 [2, 5]: 0.26 µM; IC50 [2, 6]: 0.35 µM; IC50 [2, 7]: 0.3 µM; IC50 [2, 8]: 0.3 µM; IC50 [2, 9]: 0.4 µM; IC50 [2, 10]: 0.322 µM
21 | Cc1nccc2c1[nH]c1cc(O)ccc12 [drawing 134] |  |  | Binding to fibrils (Aβ1-42) (Aβ(1-42) Fibrils): +; Binding to oligomers/polymers (Aβ1-42) [1]: ++
22 | COc1c(-c2ccco2)oc2ccccc2c1=O | + | + | 
23 | COc1cc(/C=C/C(=O)/C=C(O)/C=C/c2ccc(O)c(OC)c2)ccc1O [Curcumin] |  |  | IC50 (Aβ monomer): 10 to 20 µM
24 | COc1ccc2oc(-c3ccc(OC)c(OC)c3)c(OC)c(=O)c2c1 | + | +++ | 
25 | Cc1cc(C)c2oc(-c3cccs3)c(O)c(=O)c2c1 | − | + | 
26 | Oc1ccc2c(c1)[nH]c1ccccc12 [drawing 135] |  |  | Binding to fibrils (Aβ1-42) (Aβ(1-42) Fibrils): +; Binding to oligomers/polymers (Aβ1-42) [1]: +++
27 | C[S+]([O-])c1ccc(-c2nc(-c3ccc(F)cc3)c(-c3ccncc3)[nH]2)cc1 (centres unmarked) | + | ++ | 
28 | CC1NCCc2cc(O)c(O)cc21 (centres unmarked) | + | ++ | 
29 | Fc1ccc(-c2cn(-c3cccc(C(F)(F)F)c3)nn2)c(F)c1 | + | + | 
30 | Fc1cc(F)cc(-c2cn(-c3ccc(F)cc3F)nn2)c1 | − | ++++ | 
31 | Fc1cc(F)cc(-c2cn(-c3cc(Cl)ccc3Cl)nn2)c1 | − | + | 
32 | Nc1ccc2[nH]c(C(F)(F)F)nc2c1 | + | ++ | 
33 | [11CH3]Nc1ccc(-c2nc3ccc(O)cc3s2)cc1 [PiB, reference compound] |  |  | blocking of [18F]-CB001 staining [3]: blocks [18F]-CB001 staining with increasing concentrations
34 | O=CNc1ccc2c(c1)[nH]c1cc(OCCF)ccc12 [CB-012, N-(7-(2-fluoroethoxy)-9H-carbazol-2-yl)formamide] |  |  | IC50 [2, 11]: 0.61 µM; IC50 [2, 7]: 0.3 µM; IC50 [2, 8]: 0.45 µM; IC50 [2, 12]: 0.39 µM; IC50 [2, 10]: 0.438 µM

Row | SMILES | BINDING LEVELS TO Aβ(1-42) Fibrils (Aβ(1-42) Fibrils) | BINDING LEVELS TO Aβ(1-42) Oligomers/Polymers [1] | also measured
35 | O=CNc1ccc2c(c1)[nH]c1cc(OCCOCCOCCF)ccc12 [CB-010, N-(7-(2-(2-(2-fluoroethoxy)ethoxy)ethoxy)-9H-carbazol-2-yl)formamide] |  |  | IC50 [2, 11]: 0.9 µM; IC50 [2, 10]: 0.9 µM
36 | Cc1ccc2c(c1)sc(-c1ccc(N(C)C)cc1)[n+]2C [Thioflavin T] |  |  | IC50 (Aβ monomer): > 500 µM
37 | O=S(=O)(O)c1cccc2cccc(Nc3ccccc3)c12 [ANS] |  |  | IC50 (Aβ monomer): > 100 µM
38 | CC(=C(C#N)C#N)c1ccc2cc(N(C)CCF)ccc2c1 [FDDNP, reference compound] |  |  | Grey/white matter binding ratio using mild wash conditions ([4]; 30 min incubation, PBS, 30%/40%/20% EtOH:water, PBS, 20 um AD brain slices): Poor; Grey/white matter binding ratio using harsh FDDNP wash conditions ([4]; 30 min incubation, PBS, 70%/90%/70% EtOH:water, PBS, 20 um AD brain slices): Fair; order of (non-specific) white matter binding ([4]; AD brain slices): FDDNP>CB001>[18F]-PiB>CB003; blocking of [18F]-CB001 staining [3]: much less capable of blocking [18F]-CB001 staining
39 | CN(C)c1ccc2c(c1)[nH]c1cc(OCCOCCOCCF)ccc12 [CB-007, 7-(2-(2-(2-fluoroethoxy)ethoxy)ethoxy)-N,N-dimethyl-9H-carbazol-2-amine] |  |  | IC50 [2, 5]: 0.26 µM; IC50 [2, 6]: 0.17 µM; IC50 [2, 7]: 0.2 µM; IC50 [2, 8]: 0.29 µM; IC50 [2, 9]: 0.3 µM; IC50 [2, 10]: 0.244 µM
40 | Cc1ccc(O)c(-c2ccno2)c1 | + | + | 
41 | Nc1ccc(O)c2ncccc12 | + | ++ | 
42 | Fc1ccc(-c2nc(-c3ccccc3)c(-c3ccccc3)[nH]2)cc1 | − |  | 
43 | Nc1c(/N=N/c2ccc(-c3ccc(/N=N/c4cc(S(=O)(=O)O)c5ccccc5c4N)cc3)cc2)cc(S(=O)(=O)O)c2ccccc12 [Congo Red] |  |  | IC50 (Aβ monomer): 2 to 10 µM
44 | Nc1cccc(-c2cn(-c3cc(Cl)cc(Cl)c3)nn2)c1 | + | + | 
45 | Cc1cc(C)c2oc(-c3ccco3)c(O)c(=O)c2c1 | − | + | 
46 | Fc1ccc(-c2cn(-c3ccc(Cl)c(Cl)c3)nn2)c(F)c1 | − | + | 
47 | O=CNc1ccc2c(c1)[nH]c1cc(OCCOCCF)ccc12 [CB-024, N-(7-(2-(2-fluoroethoxy)ethoxy)-9H-carbazol-2-yl)formamide] |  |  | IC50 [2, 12]: 0.54 µM; IC50 [2, 10]: 0.54 µM
48 | Cc1nccc2c1[nH]c1cc(O)ccc12 [drawing 32] | + | ++ | 
49 | Oc1cnc(Cl)c2ccccc12 | − | + | 
50 | O=c1c(O)c(-c2cccc(O)c2)oc2ccc(O)cc12 | ++ | ++++ | 
